Measured values from PubChem BioAssay (NCI).
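Five compound concentrations were applied to cells in 96-well plates for 48 hours; endpoints were derived by simple linear interpolation of the resulting dose-response curve. GI50: concentration for 50% inhibition of growth. TGI: total growth inhibition.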

Legend:
Assay in all cases: inhibition of tumour cell growth, NCI panel, 48 h
MDA-MB-435 = test system: MDA-MB-435
COLO 205 colon = test system: COLO 205 colon
SF-268 CNS = test system: SF-268 CNS
T-47D breast = test system: T-47D breast
HS 578T breast = test system: HS 578T breast
MCF7 breast = test system: MCF7 breast
A549 NSCLC = test system: A549 NSCLC
MOLT-4 leukemia = test system: MOLT-4 leukemia
SK-MEL-28 melanoma = test system: SK-MEL-28 melanoma
MDA-MB-231 breast = test system: MDA-MB-231 breast
SF-539 CNS = test system: SF-539 CNS
ACHN renal = test system: ACHN renal
IGROV1 ovarian = test system: IGROV1 ovarian
HT29 colon = test system: HT29 colon
SNB-75 CNS = test system: SNB-75 CNS
NCI/ADR-RES ovarian = test system: NCI/ADR-RES ovarian
PC-3 prostate = test system: PC-3 prostate
U251 CNS = test system: U251 CNS
NCI-H522 lung = test system: NCI-H522 lung
LOX IMVI melanoma = test system: LOX IMVI melanoma
NCI-H23 lung = test system: NCI-H23 lung
786-0 renal = test system: 786-0 renal
K-562 leukemia = test system: K-562 leukemia
KM12 colon = test system: KM12 colon
HL-60(TB) leukemia = test system: HL-60(TB) leukemia
OVCAR-5 ovarian = test system: OVCAR-5 ovarian
HCT-15 colon = test system: HCT-15 colon
SNB-19 CNS = test system: SNB-19 CNS
TK-10 renal = test system: TK-10 renal
SK-MEL-5 melanoma = test system: SK-MEL-5 melanoma
HOP-92 NSCLC = test system: HOP-92 NSCLC
SK-MEL-2 melanoma = test system: SK-MEL-2 melanoma
CAKI-1 renal = test system: CAKI-1 renal
HCC-2998 colon = test system: HCC-2998 colon
UACC-62 melanoma = test system: UACC-62 melanoma
SR leukemia = test system: SR leukemia
A498 renal = test system: A498 renal
OVCAR-3 ovarian = test system: OVCAR-3 ovarian
UO-31 renal = test system: UO-31 renal
EKVX NSCLC = test system: EKVX NSCLC
NCI-H460 lung = test system: NCI-H460 lung
NCI-H226 lung = test system: NCI-H226 lung
HCT-116 colon = test system: HCT-116 colon
DU-145 prostate = test system: DU-145 prostate
M14 melanoma = test system: M14 melanoma
OVCAR-4 ovarian = test system: OVCAR-4 ovarian
MALME-3M melanoma = test system: MALME-3M melanoma
RXF 393 renal = test system: RXF 393 renal
SK-OV-3 ovarian = test system: SK-OV-3 ovarian
HOP-62 NSCLC = test system: HOP-62 NSCLC
RPMI-8226 leukemia = test system: RPMI-8226 leukemia
SW-620 colon = test system: SW-620 colon
SF-295 CNS = test system: SF-295 CNS
CCRF-CEM leukemia = test system: CCRF-CEM leukemia
OVCAR-8 ovarian = test system: OVCAR-8 ovarian
BT-549 breast = test system: BT-549 breast
SN12C renal = test system: SN12C renal

## Cc1ccc(S(=O)(=O)NC(=O)NCc2ccc(S(N)(=O)=O)cc2)cc1
MDA-MB-435
  TGI: > 100 µM
COLO 205 colon
  TGI: > 100 µM
SF-268 CNS
  TGI: > 100 µM
T-47D breast
  TGI: > 100 µM
HS 578T breast
  TGI: > 100 µM
MCF7 breast
  TGI: > 100 µM
A549 NSCLC
  TGI: > 100 µM
MOLT-4 leukemia
  TGI: > 100 µM
SK-MEL-28 melanoma
  TGI: > 100 µM
MDA-MB-231 breast
  TGI: > 100 µM
SF-539 CNS
  TGI: > 100 µM
ACHN renal
  TGI: > 100 µM
IGROV1 ovarian
  TGI: > 100 µM
HT29 colon
  TGI: > 100 µM
SNB-75 CNS
  TGI: > 100 µM
NCI/ADR-RES ovarian
  TGI: > 100 µM
PC-3 prostate
  TGI: > 100 µM
U251 CNS
  TGI: > 100 µM
NCI-H522 lung
  TGI: > 100 µM
LOX IMVI melanoma
  TGI: > 100 µM
NCI-H23 lung
  TGI: > 100 µM
786-0 renal
  TGI: > 100 µM
K-562 leukemia
  TGI: > 100 µM
KM12 colon
  TGI: > 100 µM
HL-60(TB) leukemia
  TGI: > 100 µM
OVCAR-5 ovarian
  TGI: > 100 µM
HCT-15 colon
  TGI: > 100 µM
SNB-19 CNS
  TGI: > 100 µM
TK-10 renal
  TGI: > 100 µM
SK-MEL-5 melanoma
  TGI: > 100 µM
HOP-92 NSCLC
  TGI: > 100 µM
SK-MEL-2 melanoma
  TGI: > 100 µM
CAKI-1 renal
  TGI: > 100 µM
HCC-2998 colon
  TGI: > 100 µM
UACC-62 melanoma
  TGI: > 100 µM
SR leukemia
  TGI: > 100 µM
A498 renal
  TGI: > 100 µM
OVCAR-3 ovarian
  TGI: > 100 µM
UO-31 renal
  TGI: > 100 µM
EKVX NSCLC
  TGI: > 100 µM
NCI-H460 lung
  TGI: > 100 µM
NCI-H226 lung
  TGI: > 100 µM
HCT-116 colon
  TGI: > 100 µM
DU-145 prostate
  TGI: > 100 µM
M14 melanoma
  TGI: > 100 µM
OVCAR-4 ovarian
  TGI: > 100 µM
MALME-3M melanoma
  TGI: > 100 µM
RXF 393 renal
  TGI: > 100 µM
SK-OV-3 ovarian
  TGI: > 100 µM
HOP-62 NSCLC
  TGI: > 100 µM
RPMI-8226 leukemia
  TGI: > 100 µM
SW-620 colon
  TGI: > 100 µM
SF-295 CNS
  TGI: > 100 µM

## CC(=O)OCC(OC(C)=O)C1C[C@H]2O[C@@H]3[C@H](C[C@H]2O1)O[C@@]1(C[C@@H]3C)C[C@H](C)[C@@H]2O[C@]3(C[C@@H]2O1)C[C@H]1O[C@H]2[C@H](C)[C@H]4OC(=O)C[C@H]5CC[C@@H]6OC7[C@H]8O[C@]9(CC[C@H]%10CC(=O)[C@H](CC[C@H]%11C[C@@H](C)C(=O)C(C[C@@H]4O[C@H]2C[C@H]1O3)O%11)O%10)CC8O[C@@H]7[C@@H](O9)[C@H]6O5 (stereo not given in full)
MDA-MB-435
  TGI: 0.0171 µM
CCRF-CEM leukemia
  TGI: > 1 µM
COLO 205 colon
  TGI: 0.0749 µM
SF-268 CNS
  TGI: > 1 µM
HS 578T breast
  TGI: 0.00604 µM
MCF7 breast
  TGI: > 1 µM
A549 NSCLC
  TGI: > 1 µM
MOLT-4 leukemia
  TGI: > 1 µM
SK-MEL-28 melanoma
  TGI: > 1 µM
MDA-MB-231 breast
  TGI: > 1 µM
ACHN renal
  TGI: > 1 µM
IGROV1 ovarian
  TGI: > 1 µM
SNB-75 CNS
  TGI: > 1 µM
NCI/ADR-RES ovarian
  TGI: > 0.566 µM
PC-3 prostate
  TGI: > 1 µM
U251 CNS
  TGI: > 1 µM
NCI-H522 lung
  TGI: 0.00322 µM
LOX IMVI melanoma
  TGI: > 0.859 µM
786-0 renal
  TGI: > 1 µM
OVCAR-8 ovarian
  TGI: > 0.258 µM
K-562 leukemia
  TGI: > 1 µM
KM12 colon
  TGI: > 0.2 µM
HL-60(TB) leukemia
  TGI: > 1 µM
HCT-15 colon
  TGI: > 0.219 µM
SNB-19 CNS
  TGI: > 1 µM
TK-10 renal
  TGI: > 1 µM
SK-MEL-5 melanoma
  TGI: > 1 µM
HOP-92 NSCLC
  TGI: > 1 µM
SK-MEL-2 melanoma
  TGI: > 1 µM
CAKI-1 renal
  TGI: > 1 µM
UACC-62 melanoma
  TGI: > 1 µM
SR leukemia
  TGI: > 1 µM
A498 renal
  TGI: > 1 µM
OVCAR-3 ovarian
  TGI: > 1 µM
UO-31 renal
  TGI: > 1 µM
BT-549 breast
  TGI: 0.411 µM
EKVX NSCLC
  TGI: > 1 µM
NCI-H460 lung
  TGI: > 1 µM
NCI-H226 lung
  TGI: 0.0731 µM
HCT-116 colon
  TGI: > 0.39 µM
DU-145 prostate
  TGI: > 1 µM
M14 melanoma
  TGI: > 1 µM
SN12C renal
  TGI: > 1 µM
OVCAR-4 ovarian
  TGI: > 1 µM
RXF 393 renal
  TGI: > 1 µM
SK-OV-3 ovarian
  TGI: > 0.22 µM
HOP-62 NSCLC
  TGI: > 1 µM
SW-620 colon
  TGI: > 1 µM

## CN(C)CCOc1ccc(/C(=C(/CCCCCCCCCC[P+](c2ccccc2)(c2ccccc2)c2ccccc2)c2ccccc2)c2ccccc2)cc1
MDA-MB-435
  GI50: 0.223 µM
  TGI: 0.899 µM
HS 578T breast
  GI50: 0.318 µM
  TGI: 1.79 µM
A549 NSCLC
  GI50: 0.0772 µM
  TGI: 1.66 µM
SK-MEL-28 melanoma
  GI50: 0.364 µM
  TGI: 1.79 µM
ACHN renal
  GI50: 0.382 µM
  TGI: 1.47 µM
HT29 colon
  GI50: 0.127 µM
  TGI: 1.4 µM
NCI/ADR-RES ovarian
  GI50: 1.32 µM
  TGI: 3.78 µM
PC-3 prostate
  GI50: 0.0304 µM
  TGI: 0.184 µM
K-562 leukemia
  GI50: 0.0389 µM
  TGI: > 100 µM
HL-60(TB) leukemia
  GI50: 0.0575 µM
  TGI: 0.319 µM
HOP-92 NSCLC
  GI50: 0.0297 µM
  TGI: 0.208 µM
SK-MEL-2 melanoma
  GI50: 0.28 µM
  TGI: 0.864 µM
A498 renal
  GI50: 0.224 µM
  TGI: 0.774 µM
EKVX NSCLC
  GI50: 0.274 µM
  TGI: 1.4 µM
DU-145 prostate
  GI50: 0.258 µM
  TGI: 1.35 µM
RPMI-8226 leukemia
  GI50: 0.0273 µM
  TGI: 0.172 µM
SW-620 colon
  GI50: 0.28 µM
  TGI: 1.32 µM
